Target: T1, TPO receptor (Homo sapiens, UniProt P40238)
T1 construct: expressed in transfected cells; host or cells: murine BaF3 cells (TPO-responsive line)
T1 sequence (P40238 26-635): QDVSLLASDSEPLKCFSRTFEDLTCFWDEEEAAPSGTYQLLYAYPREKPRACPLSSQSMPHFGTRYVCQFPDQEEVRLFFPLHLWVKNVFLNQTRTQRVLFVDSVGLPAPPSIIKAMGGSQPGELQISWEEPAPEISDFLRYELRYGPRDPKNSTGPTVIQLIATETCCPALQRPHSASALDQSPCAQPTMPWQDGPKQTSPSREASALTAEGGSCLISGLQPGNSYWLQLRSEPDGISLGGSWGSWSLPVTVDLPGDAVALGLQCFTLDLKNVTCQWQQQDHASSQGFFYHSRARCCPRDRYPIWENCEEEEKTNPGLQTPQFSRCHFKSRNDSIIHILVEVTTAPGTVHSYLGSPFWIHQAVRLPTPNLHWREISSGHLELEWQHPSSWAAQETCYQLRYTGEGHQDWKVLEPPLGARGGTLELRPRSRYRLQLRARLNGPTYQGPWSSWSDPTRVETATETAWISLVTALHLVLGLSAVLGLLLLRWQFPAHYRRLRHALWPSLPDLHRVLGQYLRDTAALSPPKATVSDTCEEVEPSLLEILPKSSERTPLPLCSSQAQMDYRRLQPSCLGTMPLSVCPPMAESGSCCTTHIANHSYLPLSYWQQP
Test: Luciferase assay in TPO-responsive BaF3 cell line
Format: cell-based, murine
Experimental: Compounds of the present invention were tested for potency as mimetics of the TPO receptor in a Luciferase assay such as described in Lamb, et al., Nucleic Acids Research 23: 3283-3289 (1995) and Seidel, et al., Proc. Natl. Acad. Sci., USA 92: 3041-3045 (1995) by substituting a TPO-responsive BaF3 cell line (Vigon et al. Proc. Natl. Acad. Sci. USA 1992, 89, 5640-5644) for the HepG2 cells utilized therein. The murine BaF3 cells express TPO receptors and closely match the pattern of STAT (signal transducers and activators of transcription) activation observed in primary murine and human bone marrow cells.

EC50 (TPO-responsive BaF3 cells): 0.72 µM
activity, % TPO (relative to TPO): 56 % TPO
Structure (SMILES): CC1=NN(c2ccc(C(=O)O)cc2)C(=O)C1N=NC1C(=O)N(c2ccc(C)c(C)c2)N=C1C (centres unmarked) [Example 1, 4-[1-(3,4-Dimethylphenyl)-3-methyl-4-(3-methyl-5-oxo-2-pyrazolin-4-ylazo)-5-oxo-2-pyrazolin-1-yl]benzoic Acid]
